Measured values: US4120892A, “Anionic naphthalene thioureido naphthalene sulfonic acids” (American Cyanamid Company, priority 1977, dated 1978)
Where a name gives a salt, the structure may show the parent alone. Read-outs that look alike come from different tables or passages of the source.

Tests used:
[1] = reported in The New England Journal of Medicine, 286, 808-812 (1972); cited from earlier work
complement system = settings: reported in the literature; cited from earlier work
whole complement = assay: In vivo complement inhibition in guinea pigs (serum whole complement, capillary tube assay); settings: Cavia porcellus, ip, guinea pig, intraperitoneal
Description: An active inhibitor protects C2 from C1 and C4; (ii) Test, Code 035 (C3-C9 inhibitor -- This test determines the ability of the late components of human complement (C3-C9) to lyse EAC 142 in the presence of appropriate dilutions of the test compound. An active inhibitor protects EAC 142 from lysis by human C3-C9; (iii) Test, Code 036 (C-Shunt inhibitor) -- In this test human erythrocytes rendered fragile are lysed in autologous serum via the shunt pathway activated by cobra venom factor in the presence of appropriate dilutions of the test compound. Inhibition of the shunt pathway results in failure of lysis; (iv) Forssman Vasculitis Test -- Here, the well known complement dependent lesion, Forssman vasculitis, is produced in guinea pigs by intradermal injection of rabbit anti-Forssman antiserum. The lesion is measured in terms of diameter, edema and hemorrhage and the extent to which a combined index of these is inhibited by prior intraperitoneal injection of the test compound at 200 mg/kg is then reported, unless otherwise stated; (v) Forssman Shock Test -- Lethal shock is produced in guinea pigs by an i.v. injection of anti-Forssman antiserum and the harmonic mean death time of treated guinea pigs is compared with that of simultaneous controls; (vi) Complement Level Reduction Test -- In this test, the above dosed guinea pigs, or others, are bled for serum and the complement level is determined in undiluted serum by the capillary tube method of U.S. Pat. No. 3,876,376 and compared to undosed control guinea pigs; and (vii) Cap 50 Test -- Here, appropriate amounts of the test compound are added to a pool of guinea pig serum in vitro, after which the undiluted serum capillary tube assay referred to above is run. The concentration of compound inhibiting 50% is reported.
(§1) With reference to Table I, guinea pigs weighing about 300 g were dosed intravenously (i.v.) or intraperitoneally (i.p.) with 200 mg/kg of the test compound dissolved in saline and adjusted to pH 7-8. […] Percent inhibition was calculated by comparison with simultaneous controls. […]

shunt pathway = assay: Test, Code 036 (C-Shunt inhibitor); type: cell-based, human; settings: activity in wells, two-fold serial dilution assay; higher well number indicates higher activity
Description: (§2) An active inhibitor protects C2 from C1 and C4; (ii) Test, Code 035 (C3-C9 inhibitor -- This test determines the ability of the late components of human complement (C3-C9) to lyse EAC 142 in the presence of appropriate dilutions of the test compound. An active inhibitor protects EAC 142 from lysis by human C3-C9; (iii) Test, Code 036 (C-Shunt inhibitor) -- In this test human erythrocytes rendered fragile are lysed in autologous serum via the shunt pathway activated by cobra venom factor in the presence of appropriate dilutions of the test compound. Inhibition of the shunt pathway results in failure of lysis; (iv) Forssman Vasculitis Test -- Here, the well known complement dependent lesion, Forssman vasculitis, is produced in guinea pigs by intradermal injection of rabbit anti-Forssman antiserum. […]
as §1

human C1 = assay: Test, Code 026 (C1 inhibitor); type: biochemical; settings: activity in wells, two-fold serial dilution assay; higher well number indicates higher activity
Description: as §2, §1

[2] = test system: late components of human complement (C3-C9); assay: Test, Code 035 (C3-C9 inhibitor; C-Late); type: cell-based; settings: activity in wells, two-fold serial dilution assay; higher well number indicates higher activity
Description: as §2, §1

Molecule | treatment of hereditary angioneurotic edema [1] | anticomplementary effect / complement inhibition (complement system) | also measured
NCCCCCC(=O)O [epsilon-aminocaproic acid] | used with success in the treatment of hereditary angioneurotic edema |  | 
heparin |  | anticomplementary effect | 
8-(3-benzamido-4-methylbenzamido)naphthalene-1,3,5-trisulfonic acid [Suramin] | used with success in the treatment of hereditary angioneurotic edema | competitive inhibitor of the complement system | 
O=S(=O)(O)c1cc(NC(=S)Nc2cc(S(=O)(=O)O)c3cc(NC(=S)Nc4cc(S(=O)(=O)O)cc5cc(S(=O)(=O)O)cc(S(=O)(=O)O)c45)cc(S(=O)(=O)O)c3c2)c2c(S(=O)(=O)O)cc(S(=O)(=O)O)cc2c1 [8,8'-[4,8-Disulfo-2,6-naphthylenebis(2-thioureylene)]-di-1,3,6-naphthalenetrisulfonic acid octasodium salt] |  |  | inhibition at 200 mg/kg (whole complement; 0.5 h, 30 minutes, read-out: In Vivo Activity (Guinea Pig) % Inhibition, Intraperitoneal, 30 minutes): -86%; inhibition at 200 mg/kg (whole complement; 1 h, 60 minutes, read-out: In Vivo Activity (Guinea Pig) % Inhibition, Intraperitoneal, 60 minutes): -84%; inhibition at 200 mg/kg (whole complement; 2 h, 120 minutes, read-out: In Vivo Activity (Guinea Pig) % Inhibition, Intraperitoneal, 120 minutes): -93%; Shunt Inhibition 036 Wells (shunt pathway): +2 Wells; Cl 026 Wells (human C1): +5 Wells; C-Late 035 Wells [2]: +2 Wells
Nc1ccc2cc(S(=O)(=O)O)cc(O)c2c1N=Nc1ccc(NC(=O)Nc2ccc(N=Nc3c(N)ccc4cc(S(=O)(=O)O)cc(O)c34)c(S(=O)(=O)O)c2)cc1S(=O)(=O)O [chlorazol fast pink, 3,3'-ureylenebis-[6-(2-amino-8-hydroxy-6-sulfo-1-naphthylazo)]benzenesulfonic acid, tetrasodium salt] |  | anticomplementary effect | 
NC[C@H]1CC[C@H](C(=O)O)CC1 [tranexamic acid] | used with success in the treatment of hereditary angioneurotic edema |  | 
